Results taken from patent publication US12478624B2, “Heterocyclic derivatives, pharmaceutical compositions and their use in the treatment or amelioration of cancer” (Tolremo Therapeutics AG, priority 2019, dated 2025).

Assays:
[1] = tested on: A375 cells; assay: Assay 1: A375 cells treated with S1152, S1008 and compound, immunofluorescence (sc-365823) signal; type: cell-based; conditions: 1 μM S1152 + 0.5 μM S1008, one day
How it was run: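 A375 cells treated one day with 1 μM S1152, 0.5 μM S1008 and compound dose ranges in DMEM/10% FCS, then fixed, permeabilised and immunostained. Green signal normalised to nuclear counterstain (ethidium-type or DAPI), log ratio fitted by four-parameter regression for EC50.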

[2] = tested on: OPM-2; assay: Assay 2: multiple myeloma cellular efficacy, PrestoBlue cell proliferation/survival; type: cell-based; conditions: Homo sapiens, 96 h, OPM-2 cells, 4 days
Method: Multiple Myeloma Cellular Efficacy:
10000 OPM-2 (ACC50; DSMZ) were plated into wells of a 384 well plate (Greiner 781090). Cells were treated for 4 days with a dose range of compound or vehicle. At the end of the experiment cells were stained directly with PrestoBlue (ThermoFisher Scietific; A13262) for 2 hours at 37° C. in a humidified incubator according to manufactor's instruction. To assess the relative cell number the PrestoBlue signal was measured using either a TecanM1000Pro reader or a Tecan Sparks reader following the manufactor's instructions. Background (no cells) values were subtracted and set in relation to the vehicle control. To assess the EC50 of each compound the relative fluorescence value was plotted against the compound concentration after log transformation. Data were fitted in a nonlinear manner with a variable slope (four parameters) using graphpad prism software. Cellular efficacy of compounds was evaluated in the multiple myeloma cell line OPM-2 using the cell proliferation/survival assay PrestoBlue. EC50 values are classified as indicated below.

## COc1cncc(-c2cc(Nc3cncc(C)c3)nc([C@@H]3CC[C@H](C)N(C(C)=O)C3)n2)c1 [Compound 00132, 1-((2S,5R)-5-(4-(5-methoxypyridin-3-yl)-6-((5-methylpyridin-3-yl)amino)pyrimidin-2-yl)-2-methylpiperidin-1-yl)ethan-1-one]
[1]
  EC50: < 200 nM
[2]
  EC50: < 200 nM

## CC(=O)N1C[C@H](c2nc(Nc3ccnc(C)c3)cc(-c3cncc(OC(F)F)c3)n2)CC[C@@H]1C [Compound 00111, 1-((2S,5R)-5-(4-(5-(difluoromethoxy)pyridin3-yl)-6-((2-methylpyridin4-yl)amino)pyrimidin-2-yl)-2-methylpiperidin-1-yl)ethan-1-one]
[1]
  EC50: < 200 nM
[2]
  EC50: 200 to 1000 nM

## CC(=O)Nc1cccc(Nc2cc(-c3cccnc3)nc([C@@H]3CC[C@H](C)N(C(C)=O)C3)n2)n1 [Compound 00148, N-(6-((2-((3R,6S)-1-acetyl-6-methylpiperidin-3-yl)-6-(pyridin-3-yl)pyrimidin-4-yl)amino)pyridin-2-yl)acetamide]
[1]
  EC50: < 200 nM
[2]
  EC50: < 200 nM

## CC(=O)N1C[C@H](c2nc(Nc3cncc(C(F)(F)F)c3)cc(-c3cccnc3)n2)CC[C@@H]1C [Compound 00124, 1-((2S,5R)-2-methyl-5-(4-(pyridin-3-yl)-6-((5-(trifluoromethyl)pyridin-3-yl)amino)pyrimidin-2-yl)piperidin 1-yl)ethan-1-one]
[1]
  EC50: < 200 nM
[2]
  EC50: 200 to 1000 nM

## CC(=O)N1C[C@H](c2nc(Nc3ccnc(OC(C)C)c3)cc(-c3cnccn3)n2)CC[C@@H]1C [Compound 00155, 1-((2S,5R)-5-(4-((2-isopropoxypyridin-4-yl)amino)-6-(pyrazin-2-yl)pyrimidin-2-yl)-2-methylpiperidin-1-yl)ethan-1-one]
[1]
  EC50: 200 to 1000 nM
[2]
  EC50: 200 to 1000 nM

## CC(=O)Nc1cc(Nc2cc(-c3cnccn3)nc([C@@H]3CC[C@H](C)N(C(C)=O)C3)n2)cc(C(F)F)c1 [Compound 00059, N-(3-((2-((3R,6S)-1-acetyl-6-methylpiperidin-3-yl)-6-(pyrazin-2-yl)pyrimidin-4-yl)amino)-5-(difluoromethyl)phenyl)acetamide]
[1]
  EC50: < 200 nM
[2]
  EC50: < 200 nM

## CC(=O)N1C[C@H](c2nc(Nc3cccc(N4CCOC4=O)c3)cc(-c3cccnc3)n2)CC[C@@H]1C [Compound 00088, 3-(3-((2-((3R,6S)-1-acetyl-6-methylpiperidin-3-yl)-6-(pyridin-3-yl)pyrimidin-4-yl)amino)phenyl)oxazolidin-2-one]
[1]
  EC50: < 200 nM
[2]
  EC50: 200 to 1000 nM

## CC(=O)N1C[C@H](c2nc(Nc3cccc(-n4ccc(C)n4)c3)cc(-c3cccnc3)n2)CC[C@@H]1C [Compound 00077, 1-((2S,5R)-2-methyl-5-(4-((3-(3-methyl-1H-pyrazol-1-yl)phenyl)amino)-6-(pyridin-3-yl)pyrimidin-2-yl)piperidin-1-yl)ethan-1-one]
[1]
  EC50: < 200 nM
[2]
  EC50: 200 to 1000 nM

## CC(=O)N1C[C@H](c2nc(Nc3ccnc(F)c3)cc(-c3cncc4c3ccn4C)n2)CC[C@@H]1C [Compound 00118, 1-((2S,5R)-5-(4-((2-fluoropyridin-4-yl)amino)-6-(1-methyl-1H-pyrrolo[2,3-c]pyridin-4-yl)pyrimidin-2-yl)-2-methylpiperidin-1-yl)ethan-1-one]
[1]
  EC50: < 200 nM
[2]
  EC50: < 200 nM

## CC(=O)N1C[C@H](c2nc(Nc3ccnc(C(C)(F)F)c3)cc(-c3cccnc3)n2)CC[C@@H]1C [Compound 00146, 1-((2S,5R)-5-(4-((2-(1,1-difluoroethyl)pyridin-4-yl)amino)-6-(pyridin-3-yl)pyrimidin-2-yl)-2-methylpiperidin-1-yl)ethan-1-one]
[1]
  EC50: < 200 nM
[2]
  EC50: 200 to 1000 nM

## CC(=O)N1C[C@H](c2nc(Nc3cccc4nn(C)cc34)cc(-c3cnccn3)n2)CC[C@@H]1C [Compound 00050, 1-((2S,5R)-2-methyl-5-(4-((2-methyl-2/−/−indazol-4-yl)amino)-6-(pyrazin-2-yl)pyrimidin-2-yl)piperidin-1-yl)ethan-1-one]
[1]
  EC50: < 200 nM
[2]
  EC50: 200 to 1000 nM

## CC(=O)N1C[C@H](c2nc(Nc3ccc4oc(C)nc4c3)cc(-c3cccnc3)n2)CC[C@@H]1C [Compound 00147, 1-((2S,5R)-2-methyl-5-(4-((2-methylbenzo[d]oxazol-5-yl)amino)-6-(pyridin-3-yl)pyrimidin-2-yl)piperidin-1-yl)ethan-1-one]
[1]
  EC50: < 200 nM
[2]
  EC50: < 200 nM

## CC(=O)N1C[C@H](c2nc(Nc3cccc(-n4ccnn4)c3)cc(-c3cccnc3)n2)CC[C@@H]1C [Compound 00083, 1-((2S,5R)-5-(4-((3-(1H-1,2,3-triazol-1-yl)phenyl)amino)-6-(pyridin-3-yl)pyrimidin-2-yl)-2-methylpiperidin-1-yl)ethan1-one]
[1]
  EC50: < 200 nM
[2]
  EC50: 200 to 1000 nM

## CC(=O)Nc1cc(Nc2cc(-c3cnccn3)nc([C@@H]3CC[C@H](C)N(C(C)=O)C3)n2)ccn1 [Compound 00137, N-(4-((2-((3R,6S)-1-acetyl-6-methylpiperidin-3-yl)-6-(pyrazin-2-yl)pyrimidin-4-yl)amino)pyridin-2-yl)acetamide]
[1]
  EC50: 200 to 1000 nM
[2]
  EC50: 1000 to 10000 nM

## CC(=O)N1C[C@H](c2nc(Nc3cccc(F)c3)cc(-c3cccnc3)n2)CC[C@@H]1C [Compound 00080, 1-((2S,5R)-5-(4-((3-fluorophenyl)amino)-6-(pyridin-3-yl)pyrimidin-2-yl)-2-methylpiperidin-1-yl)ethan-1-one]
[1]
  EC50: < 200 nM
[2]
  EC50: 200 to 1000 nM

## CCn1cc(-c2cc(Nc3cc(-c4cccnc4)nc([C@@H]4CC[C@H](C)N(C(C)=O)C4)n3)ccn2)cn1 [Compound 00158, 1-((2S-5R)-5-(4-((2-(1-ethyl-1H-pyrazol-4-yl)pyridin-4-yl)amino)-6-(pyridin-3-yl)pyrimidin-2-yl)-2-methylpiperidin-1-yl)ethan-1-one]
[1]
  EC50: < 200 nM
[2]
  EC50: < 200 nM

## CC(=O)N1C[C@H](c2nc(Nc3ccnc(C(F)F)c3)cc(-c3cnccn3)n2)CC[C@@H]1C [Compound 00130, 1-((2S,5R)-5-(4-((2-(difluoromethyl)pyridin-4-yl)amino)-6-(pyrazin-2-yl)pyrimidin-2-yl)-2-methylpiperidin-1-yl)ethan-1-one]
[1]
  EC50: < 200 nM
[2]
  EC50: < 200 nM

## CC(=O)Nc1cccc(Nc2cc(-c3cccnc3)nc([C@@H]3CC[C@H](C)N(C(C)=O)C3)n2)c1 [Compound 00054, N-(3-((2-((3R,6S)-1-acetyl-6-methylpiperidin-3-yl)-6-(pyridin-3-yl)pyrimidin-4-yl)amino)phenyl)acetamide]
[1]
  EC50: < 200 nM
[2]
  EC50: < 200 nM

## CC(=O)N1C[C@H](c2nc(Nc3cc(-c4cnn(C)c4)cc(C(F)F)c3)cc(-c3cccnc3)n2)CC[C@@H]1C [Compound 00057, 1-((2S,5R)-5-(4-((3-(difluoromethyl)-5-(1-methyl-1H-pyrazol-4-yl)phenyl)amino)-6-(pyridin-3-yl)pyrimidin-2-yl)-2-methylpiperidin-1-yl)ethan-1-one]
[1]
  EC50: < 200 nM
[2]
  EC50: < 200 nM

## COc1cc(F)cc(Nc2cc(-c3cnccn3)nc([C@@H]3CC[C@H](C)N(C(C)=O)C3)n2)c1 [Compound 00067, 1-((2S,5R)-5-(4-((3-fluoro-5-methoxyphenyl)amino)-6-(pyrazin-2-yl)pyrimidin-2-yl)-2-methylpiperidin-1-yl)ethan-1-one]
[1]
  EC50: < 200 nM
[2]
  EC50: < 200 nM

## CC(=O)N1C[C@H](c2nc(Nc3cncc(C(F)F)c3)cc(-c3cccnc3)n2)CC[C@@H]1C [Compound 00107, 1-((2S,5R)-5-(4-((5-(difluoromethyl)pyridin-3-yl)amino)-6-(pyridin-3-yl)pyrimidin-2-yl)-2-methylpiperidin-1-yl)ethan-1-one]
[1]
  EC50: 200 to 1000 nM
[2]
  EC50: 200 to 1000 nM

## CC(=O)N1C[C@H](c2nc(Nc3cc(F)ccn3)cc(-c3cnccn3)n2)CC[C@@H]1C [Compound 00156, 1-((2S,5R)-5-(4-((4-fluoropyridin-2-yl)amino)-6-(pyrazin2-yl)pyrimidin-2-yl)-2-methylpiperidin-1-yl)ethan-1-one]
[1]
  EC50: 200 to 1000 nM
[2]
  EC50: 200 to 1000 nM

## CC(=O)N1C[C@H](c2nc(Nc3cccc4c3CC(=O)N4)cc(-c3cccnc3)n2)CC[C@@H]1C [Compound 00051, 4-((2-((3R,6S)-1-acetyl-6-methylpiperidin-3-yl)-6-(pyridin-3-yl)pyrimidin-4-yl)amino)indolin-2-]
[1]
  EC50: 200 to 1000 nM
[2]
  EC50: 1000 to 10000 nM

## COc1cc(Nc2cc(-c3cccnc3)nc([C@@H]3CC[C@H](C)N(C(C)=O)C3)n2)ccn1 [Compound 00139, 1-((2S,5R)-5-(4-((2-methoxypyridin-4-yl)amino)-6-(pyridin-3-yl)pyrimidin-2-yl)-2-methylpiperidin-1-yl)ethan1-one]
[1]
  EC50: < 200 nM
[2]
  EC50: < 200 nM

## CC(=O)N1C[C@H](c2nc(Nc3cc(C)nc(C(F)F)c3)cc(-c3cnccn3)n2)CC[C@@H]1C [Compound 00145, 1-((2S,5R)-5-(4-((2-(difluoromethyl)-6-methylpyridin-4-yl)amino)-6-(pyrazin-2-yl)pyrimidin-2-yl)-2-methylpiperidin-1-yl)ethan-1-one]
[1]
  EC50: < 200 nM
[2]
  EC50: < 200 nM

## COCCOc1cncc(-c2cc(Nc3cc(F)cc(-c4cnn(C)c4)c3)nc([C@@H]3CC[C@H](C)N(C(C)=O)C3)n2)c1 [Compound 00091, 1-((2S,5R)-5-(4-((3-fluoro-5-(1-methyl-1H-pyrazol-4-yl)phenyl)amino)-6-(5-(2-methoxyethoxy)pyridin-3-yl)pyrimidin-2-yl)-2-methylpiperidin-1-yl)ethan-1-one]
[1]
  EC50: < 200 nM
[2]
  EC50: < 200 nM
